Data taken from patent US10125121B2, “FYN kinase inhibitors” (ROTTAPHARM BIOTECH S.R.L., priority 2015, dated 2018).
Where two headings read alike, the source gives them in different places.

Legend:
[1] = test system: JB6 CI 41-5a (P+); assay: Toxicity in JB6 cells (MTT method); type: cell-based, murine; settings: 3 μmolar, 24 hours of incubation
Procedure: Cell toxicity analysis in JB6 CI 41-5a (P+) is important to determine if the results obtained in GR assay are due to the pharmacological effect or to a toxicity effect of the products.
The murine epithelial cell line JB6 CI 41-5a (P+) (ATCC® Cat. # CRL-2010) was used to analyze the products cell toxicity by MTT method. 10^4 cells/well were plated in a 96× well plate MEM 5%. 48 h after plating the cells were pre-treated with the different compounds and positive standards for 1 h and then stimulated with TNFα (to simulate the same experimental conditions used in the gene reporter assay) for 4 and 24 h. At the end of the incubation time, the medium was removed and was substituted with a mixture 10:1 of MEM 5% MTT (2 mg/ml) for 1 h at 37° C. in the cell incubator. MTT is a tetrazolium salt especially useful for assaying the quantification of living metabolically active cells; it works by being metabolized by mitochondrial dehydrogenases to form a formazan dye (salt). After this incubation the supernatant was removed and the precipitated salt was dissolved with 100 μl of DMSO. The plate was then read at 540 nm. 100 μl of DMSO alone (without cells) were used as a blank, that was subtracted from the measure of each sample.

[2] = test system: mechanical hyperalgesia in meniscal tear osteoarthritis; assay: Surgically induced meniscal tear osteoarthritis in the rat (MMT); type: in vivo; settings: for Pain threshold / Pain threshold: MPE (%): 10 mg/kg daily orally
Excerpt: Male Sprague Dawley rats (Charles River) approximately 350 g body weight were used. Rats were anesthetized using 2.5% isoflurane in oxygen with a flow rate of 1 I per minute. The right hind leg was shaved and surgically prepared. The medial collateral ligament was exposed and transected. The meniscus was grasped with a hemostat and reflected proximally toward the femur. The meniscus was cut through its full thickness at the narrowest point. The connective tissue layer and the skin were closed with coated Vicryl 8-0 and 4-0 silk sutures, respectively. Sham operated animals underwent an identical procedure with the exception that the medial collateral ligament was exposed but not transected. After a recovery period of 2 weeks, mechanical hyperalgesia was evaluated for the following 4 weeks, once a week, before and 90 minutes after drugs administration. Pharmacological oral treatment was performed for 28 days, starting from 14 days after surgery. After 6 weeks from surgery, rats (ten animals per group) were sacrificed and the ipsilateral knee was removed for histopathological analysis.
The maximum possible effect (MPE %) was calculated by the following formula: 100*(Compound−Vehicle)/(Sham−Vehicle)

[3] = test system: CFA induced hyperalgesia; assay: CFA-induced inflammatory pain in rats (Randall-Selitto paw withdrawal threshold); type: in vivo; settings: rat, 24 h after administration
Procedure: Male Wistar rats were injected into the right hind footpad with 300 μg of Mycobacterium tuberculosis in 100 μL of liquid paraffin (Complete Freund's Adjuvant; CFA). Seventy-two hours later, compounds 2 and 26 were administered subcutaneously and 24 h after the administration, the response to noxious mechanical stimulation was assessed by measuring paw withdrawal threshold (PWT) with an analgesimeter of the Randall-Selitto type. Animals were gently restrained, and steadily increasing pressure was applied to the dorsal surface of both the ipsi-lateral (CFA-treated) and the contra-lateral paw via a dome-shaped plastic tip.
100% protection means that the animal treated with the compound and CFA can tolerate the same stimulus (weight) as the control animal which has not received CFA treatment.

[4] = test system: NF-kB activation in JB6 CI 41-5a (P+) cells; assay: Gene reporter (GR) assay, NF-kB luciferase after TNFα stimulation; type: cell-based, murine; settings: 1 h pre-treatment, 2 ng/ml TNFα for 4 h, read-out: IC50(nM) GR Inhibition
Excerpt: To determine if the compounds of the invention were active also in a cellular model, a gene reporter assay was established in a cell line (JB6 CI 41-5a (P+)) know to activate Fyn kinase via an inflammatory stimuli (TNFα). GR assay measures the activation of the nuclear transcription factor NF-kB, situated down-stream the Fyn activation pathway. Products active in this analysis has to penetrate in the cell and inhibit the activation pathway of NF-kB.
The murine epithelial cell line JB6 CI 41-5a (P+) (ATCC® Cat. # CRL-2010) was stably transfected with the pGL4.32[luc2P/NFkB-RE/Hygro] vector (Promega). Clonal selection was achieved by limiting dilution in MEM (+Earle's BSS+1.5 g/l sodium bicarbonate+0.1 mM NEAA)+GlutaMAX™-I, +1 mM sodium pyruvate, +5% FBS+80 μg/ml Hygromycin B. The clones were tested for their response to TNFα stimulus. The obtained transfected cells (JB6(P+) NFkB-RE-luc2P T3-C10) contained a firefly luciferase gene (luc2P) under the control of minimal TATA promoter with multiple Nuclear Factor-kB response elements (NFkB-REs). These NFkB-REs are DNA binding sequences for the NF-kB transcription factor.
JB6(P+) NFkB-RE-luc2P T3-C10 cells were used for the analysis of NF-kB activity modulation, after TNFα stimulation, by Fyn-inhibitors (Hwang et al.; Biochem. Pharmacol. 2009, 77 (7):1213-22).
6000 cells/well were plated in a 96× well plate. After 24 h new medium without antibiotics was given. After further 24 h the cells were pre-treated with the different compounds for 1 h and then stimulated with 2 ng/ml TNFα for 4 h. In each experiments two positive standards were always used, and each tested condition was analyzed in quadruplicate.
The luciferase analysis was performed with ONE-Glo™+ToxLuciferase Reporter and Cell Viability Assay kit (Promega). This assay combined luciferase assay chemistry with a cell viability marker to better understand reporter gene expression in the context of cell health. The assay uses a two-step process. The first part of the assay was a non-lytic fluorescence assay (CellTiter-Fluor™ Cell Viability Assay) that measured the relative number of live cells in a culture population, as it measures a conserved and constitutive protease activity within live cells. The live-cell protease activity was restricted to intact viable cells and was measured using a fluorogenic, cell-permeant peptide substrate (glycyl-phenylalanyl-aminofluorocoumarin; GF-AFC). The generated fluorescent signal, proportional to the number of living cells, was measured with EnVision microplate reader (PerkinElmer) using an excitation wavelength of 400 nm and emission wavelength of 500 nm.
The second part of the assay uses the ONE-Glo™ Luciferase Assay System to quantify firefly luciferase reporter gene expression. The ONE-Glo™ Assay contained a fluoro-luciferin substrate, more tolerant to sample components than standard luciferase assay reagents. Luminescence was measured with EnVision microplate reader (PerkinElmer).
Compounds of Formula (I) were tested for their capacity to penetrate into the cell and inhibit the activation pathway of NF-kB.

[5] = Pharmacokinetics in rats; type: in vivo, rat; settings: 1 mg/kg orally
[6] = biological target: active FYN (human recombinant, 62.7 kDa) (Homo sapiens, UniProt P06241); assay: In vitro kinase assay (Z′-LYTE FRET); type: biochemical; settings: read-out: IC50(nM) FYN INHIBITION
Procedure: Assays to determine the kinase inhibitory activity of compounds were performed using an automatic liquid handling device (Microlab STAR Hamilton) and Z′-LYTE™ Kinase Assay Platform, a Fluorescence Resonance Energy Transfer (FRET)-based assay platform compatible with high-throughput screening (HTS) applications. The assay employs a fluorescence-based, coupled-enzyme format and utilizes the differential sensitivity of phosphorylated and non-phosphorylated peptides to proteolytic cleavage.
All reagents were diluted in reaction buffer and the kinase reaction was carried out in a total volume of 10 μl, for 60 minutes at 25° C. The 0% Phosphorylation (i.e. no ATP) and 100% Phosphorylation (i.e. synthetically phosphorylated peptide supplied) Assay Controls, included in each plate, allowed to calculate the percent phosphorylation achieved in the specific reaction well. The 0% Inhibition and 0% Phosphorylation (i.e. 100% Inhibition) Controls define the dynamic range in the screen. At the end of incubation, a secondary reaction (the Development Reaction) started by adding 5 μl of Development Reagent, containing a site-specific protease that recognizes and cleaves non-phosphorylated peptides, and was interrupted after 60 minutes with 5 μl/sample of Stop Reagent.
The compounds were tested in a range of concentrations 10^−6-10^−9 M.
Results are expressed as percentage of inhibition and the IC50 values were calculated by non-linear curve fitting using GraphPad™ Prism software.

active FYN (human recombinant, 62.7 kDa), sequence (P06241 whole entry): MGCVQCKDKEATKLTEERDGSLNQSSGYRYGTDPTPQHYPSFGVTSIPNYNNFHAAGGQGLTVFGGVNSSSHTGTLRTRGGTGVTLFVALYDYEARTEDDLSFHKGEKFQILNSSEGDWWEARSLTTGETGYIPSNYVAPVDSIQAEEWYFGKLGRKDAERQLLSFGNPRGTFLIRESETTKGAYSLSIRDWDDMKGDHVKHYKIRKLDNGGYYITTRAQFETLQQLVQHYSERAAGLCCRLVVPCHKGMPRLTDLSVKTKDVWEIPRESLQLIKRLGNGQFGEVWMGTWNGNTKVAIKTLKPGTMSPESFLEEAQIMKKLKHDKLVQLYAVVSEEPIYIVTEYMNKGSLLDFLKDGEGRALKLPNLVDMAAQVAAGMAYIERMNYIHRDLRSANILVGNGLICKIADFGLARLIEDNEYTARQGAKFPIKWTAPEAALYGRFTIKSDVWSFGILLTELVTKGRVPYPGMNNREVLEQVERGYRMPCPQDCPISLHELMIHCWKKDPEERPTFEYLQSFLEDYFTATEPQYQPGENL

With CC(C)(C)n1nc(-c2ccc(Cl)cc2)c2c(N)ncnc21 [PP2, reference compound] the “percent residual cell vitality” value [1] was 18%, the “Pain threshold” value ([2]; day 14 post surgery) was 285 g and the “Pain threshold” value ([2]; day 21 post surgery) was 278 g. For the same molecule, the “Pain threshold: MPE (%)” value ([2]; day 21 post surgery) was 1.8%, the “Pain threshold” value ([2]; day 28 post surgery) was 267 g and the “Pain threshold: MPE (%)” value ([2]; day 28 post surgery) was 0%. For the same molecule, the “Pain threshold” value ([2]; day 35 post surgery) was 262 g, the “Pain threshold: MPE (%)” value ([2]; day 35 post surgery) was 0% and the “Pain threshold” value ([2]; day 42 post surgery) was 253 g. The “Pain threshold: MPE (%)” value ([2]; day 42 post surgery) was 0%, the tolerability ([2]; rat, oral, doses higher than 10 mg/kg) was “not tolerated” and the “% protective effect vs. CFA induced hyperalgesia” value [3]; 3 was 45%. The “% protective effect vs. CFA induced hyperalgesia” value [3]; 10 was 47%, the IC50 [4] was 505 nM and the “AUC (0-24 h)” value [5] was 160 ng·h/mL.
For O=C(Nc1ccc(CN2CCN(c3nccc(Nc4cc(C5CC5)[nH]n4)n3)CC2)cc1)c1ncccc1C(F)(F)F [Compound 26, N-(4-((4-(4-((5-cyclopropyl-1H-pyrazol-3-yl)amino)pyrimidin-2-yl)piperazin-1-yl)methyl)phenyl)-3-(trifluoromethyl)-picolinamide], the IC50 [6] was 9 nM, the “% protective effect vs. CFA induced hyperalgesia” value [3]; 3 was 100% and the IC50 ([4]; Mus musculus) was 247 nM.
